Source: patent publication US20250176599A1, “FLAVOR COMPOSITION AND FOOD AND BEVERAGE” (TAKASAGO INTERNATIONAL CORPORATION, priority 2021, published 2025)

Tests used:
[1] = Sensory evaluation of degradation component-added soymilk II (1-octen-3-ol 500 ppb); conditions: average panel score
Experimental: (§1) To commercially available soymilk (“Delicious Unadjusted Soymilk” manufactured by Kikkoman Corporation), each degradation component was added to prepare degradation component-added soymilks at the concentrations listed in Table 23. To these degradation component-added soymilks, 1,4-dioxacycloheptadecan-5,17-dione was added at the concentrations listed in Table 23 to confirm the intensity of the off-flavor (masking effect) and the intensity of the masking components (impact on the flavor of the soymilk itself) for each sample.
(§2) Eight experienced panelists were selected to conduct a sensory evaluation similar to that of Example 1. […]

[2] = Overall conclusion of the sensory evaluation across aqueous solutions I to VI
In short: (§3)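 Degradation component dissolved in ion-exchanged water; nootkatone then added. Eight experienced panelists tasted each sample, rating off-flavor (0 not sensed to 4 strongly sensed) relative to the masker-free solution set at 4 and water at 0, and masker intensity on an absolute 0–4 scale.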

[3] = Sensory evaluation of aqueous solution V containing 1-octen-3-ol 10 ppb: off-flavor intensity and masking component intensity; conditions: average panel score
In short: as §3

[4] = Overall conclusion of the sensory evaluation across soymilks I and II
Experimental: as §1
Eight experienced panelists were selected to conduct a sensory evaluation similar to that of Example 1.
The same method as in Example 20 was used to confirm the intensity of the off-flavor (masking effect) derived from unsaturated fatty acids by α-methyl ionone and the intensity of the masking components (impact on the flavor of the soymilk itself).
The same method as in Example 20 was used to confirm the intensity of the off-flavor (masking effect) derived from unsaturated fatty acids by menthyl 3-hydroxybutyrate and the intensity of the masking components (impact on the flavor of the soymilk itself).

[5] = Sensory evaluation of aqueous solution I containing (E)-2-nonenal 1 ppb: off-flavor intensity and masking component intensity; conditions: average panel score
In short: as §3

[6] = Sensory evaluation of degradation component-added soymilk I ((E)-2-nonenal 5 ppb); conditions: average panel score
Experimental: as §1, §2

[7] = Sensory evaluation of aqueous solution VI containing 1,5-octadien-3-ol 10 ppb: off-flavor intensity and masking component intensity; conditions: aqueous solution VI, average panel score
In short: as §3

[8] = Sensory evaluation of aqueous solution III containing 1-octen-3-one 1 ppb: off-flavor intensity and masking component intensity; conditions: average panel score
In short: as §3

[9] = Sensory evaluation of aqueous solution IV containing 1,5-octadien-3-one 100 ppt: off-flavor intensity and masking component intensity; conditions: aqueous solution IV, average panel score
In short: as §3

[10] = Sensory evaluation of aqueous solution II containing (E)-2-octenal 10 ppb: off-flavor intensity and masking component intensity; conditions: average panel score
In short: as §3

Q: What does the source list for `CC(O)CC(=O)OC1CC(C)CCC1C(C)C` (stereo not drawn) [menthyl 3-hydroxybutyrate]?
A: Masking Component Intensity ([1]; 1 ppm added): 0.5; Off-Flavor Intensity ([1]; 1 ppm added): 2.5; Masking Component Intensity ([1]; 10 ppm added): 1.3; Off-Flavor Intensity ([1]; 10 ppm added): 1.9; Masking Component Intensity ([1]; 50 ppm added): 1.9; Off-Flavor Intensity ([1]; 50 ppm added): 1.4; Masking Component Intensity ([1]; 100 ppb added): 0.4; Off-Flavor Intensity ([1]; 100 ppb added): 2.9; Masking Component Intensity ([1]; 100 ppm added): 2.9; Off-Flavor Intensity ([1]; 100 ppm added): 0.8; concentration that masks the off-flavor and does not affect the flavor of the food and/or beverage itself, lower limit [2]: ≥ 10 ppt; concentration that masks the off-flavor and does not affect the flavor of the food and/or beverage itself, upper limit [2]: ≤ 10 ppm; Masking Component Intensity ([3]; 1 ppb added): 0.4; Off-Flavor Intensity ([3]; 1 ppb added): 3.3; Masking Component Intensity ([3]; 1 ppm added): 1.0; Off-Flavor Intensity ([3]; 1 ppm added): 2.5; Masking Component Intensity ([3]; 5 ppm added): 1.6; Off-Flavor Intensity ([3]; 5 ppm added): 2.4; Masking Component Intensity ([3]; 10 ppb added): 0.8; Off-Flavor Intensity ([3]; 10 ppb added): 2.9; Masking Component Intensity ([3]; 10 ppm added): 2.4; Off-Flavor Intensity ([3]; 10 ppm added): 2.0; Masking Component Intensity ([3]; 50 ppm added): 3.5; Off-Flavor Intensity ([3]; 50 ppm added): 1.5; Masking Component Intensity ([3]; 100 ppb added): 1.0; Off-Flavor Intensity ([3]; 100 ppb added): 2.8; Masking Component Intensity ([3]; 100 ppt added): 0.3; Off-Flavor Intensity ([3]; 100 ppt added): 3.5; concentration that masks the off-flavor and does not affect the flavor of the soymilk itself, lower limit [4]: ≥ 100 ppb; concentration that masks the off-flavor and does not affect the flavor of the soymilk itself, upper limit [4]: ≤ 100 ppm; Masking Component Intensity ([5]; 1 ppb added): 0.6; Off-Flavor Intensity ([5]; 1 ppb added): 3.1; Masking Component Intensity ([5]; 1 ppm added): 1.9; Off-Flavor Intensity ([5]; 1 ppm added): 2.5; Masking Component Intensity ([5]; 10 ppb added): 0.9; Off-Flavor Intensity ([5]; 10 ppb added): 3.0; Masking Component Intensity ([5]; 10 ppm added): 2.5; Off-Flavor Intensity ([5]; 10 ppm added): 1.9; Masking Component Intensity ([5]; 10 ppt added): 0.1; Off-Flavor Intensity ([5]; 10 ppt added): 3.6; Masking Component Intensity ([5]; 50 ppm added): 3.5; Off-Flavor Intensity ([5]; 50 ppm added): 1.4; Masking Component Intensity ([5]; 100 ppb added): 1.5; Off-Flavor Intensity ([5]; 100 ppb added): 2.9; Masking Component Intensity ([5]; 100 ppt added): 0.3; Off-Flavor Intensity ([5]; 100 ppt added): 3.4; Masking Component Intensity ([6]; 1 ppm added): 0.4; Off-Flavor Intensity ([6]; 1 ppm added): 2.4; Masking Component Intensity ([6]; 10 ppm added): 1.1; Off-Flavor Intensity ([6]; 10 ppm added): 1.9; Masking Component Intensity ([6]; 50 ppm added): 2.3; Off-Flavor Intensity ([6]; 50 ppm added): 1.5; Masking Component Intensity ([6]; 100 ppb added): 0.1; Off-Flavor Intensity ([6]; 100 ppb added): 2.8; Masking Component Intensity ([6]; 100 ppm added): 3.1; Off-Flavor Intensity ([6]; 100 ppm added): 1.3; Masking Component Intensity ([7]; 1 ppb added): 0.3; Off-Flavor Intensity ([7]; 1 ppb added): 2.9; Masking Component Intensity ([7]; 1 ppm added): 1.4; Off-Flavor Intensity ([7]; 1 ppm added): 2.1; Masking Component Intensity ([7]; 5 ppm added): 1.8; Off-Flavor Intensity ([7]; 5 ppm added): 1.8; Masking Component Intensity ([7]; 10 ppb added): 0.6; Off-Flavor Intensity ([7]; 10 ppb added): 2.9; Masking Component Intensity ([7]; 10 ppm added): 2.5; Off-Flavor Intensity ([7]; 10 ppm added): 1.6; Masking Component Intensity ([7]; 50 ppm added): 3.6; Off-Flavor Intensity ([7]; 50 ppm added): 1.3; Masking Component Intensity ([7]; 100 ppb added): 0.9; Off-Flavor Intensity ([7]; 100 ppb added): 2.5; Masking Component Intensity ([7]; 100 ppt added): 0.1; Off-Flavor Intensity ([7]; 100 ppt added): 3.0; Masking Component Intensity ([8]; 1 ppb added): 0.6; Off-Flavor Intensity ([8]; 1 ppb added): 3.4; Masking Component Intensity ([8]; 1 ppm added): 1.8; Off-Flavor Intensity ([8]; 1 ppm added): 2.4; Masking Component Intensity ([8]; 10 ppb added): 1.0; Off-Flavor Intensity ([8]; 10 ppb added): 2.9; Masking Component Intensity ([8]; 10 ppm added): 2.6; Off-Flavor Intensity ([8]; 10 ppm added): 2.0; Masking Component Intensity ([8]; 10 ppt added): 0.3; Off-Flavor Intensity ([8]; 10 ppt added): 3.6; Masking Component Intensity ([8]; 50 ppm added): 3.5; Off-Flavor Intensity ([8]; 50 ppm added): 1.8; Masking Component Intensity ([8]; 100 ppb added): 1.5; Off-Flavor Intensity ([8]; 100 ppb added): 2.9; Masking Component Intensity ([8]; 100 ppt added): 0.3; Off-Flavor Intensity ([8]; 100 ppt added): 3.6; Masking Component Intensity ([9]; 1 ppb added): 0.1; Off-Flavor Intensity ([9]; 1 ppb added): 3.8; Masking Component Intensity ([9]; 1 ppm added): 1.1; Off-Flavor Intensity ([9]; 1 ppm added): 3.0; Masking Component Intensity ([9]; 5 ppm added): 1.8; Off-Flavor Intensity ([9]; 5 ppm added): 2.5; Masking Component Intensity ([9]; 10 ppb added): 0.6; Off-Flavor Intensity ([9]; 10 ppb added): 3.4; Masking Component Intensity ([9]; 10 ppm added): 2.6; Off-Flavor Intensity ([9]; 10 ppm added): 2.5; Masking Component Intensity ([9]; 50 ppm added): 3.1; Off-Flavor Intensity ([9]; 50 ppm added): 2.0; Masking Component Intensity ([9]; 100 ppb added): 0.8; Off-Flavor Intensity ([9]; 100 ppb added): 3.1; Masking Component Intensity ([9]; 100 ppt added): 0.1; Off-Flavor Intensity ([9]; 100 ppt added): 3.8; Masking Component Intensity ([10]; 1 ppb added): 0.6; Off-Flavor Intensity ([10]; 1 ppb added): 3.0; Masking Component Intensity ([10]; 1 ppm added): 1.9; Off-Flavor Intensity ([10]; 1 ppm added): 2.0; Masking Component Intensity ([10]; 10 ppb added): 0.9; Off-Flavor Intensity ([10]; 10 ppb added): 2.8; Masking Component Intensity ([10]; 10 ppm added): 2.1; Off-Flavor Intensity ([10]; 10 ppm added): 1.9; Masking Component Intensity ([10]; 10 ppt added): 0.4; Off-Flavor Intensity ([10]; 10 ppt added): 3.4; Masking Component Intensity ([10]; 50 ppm added): 3.5; Off-Flavor Intensity ([10]; 50 ppm added): 1.1; Masking Component Intensity ([10]; 100 ppb added): 1.4; Off-Flavor Intensity ([10]; 100 ppb added): 2.3; Masking Component Intensity ([10]; 100 ppt added): 0.4; Off-Flavor Intensity ([10]; 100 ppt added): 3.4
